Experimental data as given in patent US20240208968A1, “ALPHA V BETA 6 AND ALPHA V BETA 1 INTEGRIN INHIBITORS AND USES THEREOF” (DiCE Molecules SV, Inc., priority 2021, published 2024).

Assays:
[1] = biological target: αvβ1 (Homo sapiens, UniProt P05556+P06756); assay: Solid Phase Integrin αvβ1 Assay; assay type: binding
In short: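 Compound competes for αvβ1 binding to immobilized TGFb1-LAP (1 µg/mL coat) in Mn2+ (1 mM MnCl2), 2% BSA binding buffer over 90 min at room temperature, integrin added at 0.2 µg/mL. Read-out: streptavidin-HRP/TMB; IC50 from Levenberg-Marquardt four-parameter fit.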

[2] = biological target: αvβ6 (Homo sapiens, UniProt P06756+P18564); assay: Solid Phase Integrin αvβ6 Assay; assay type: binding
Sequence of αvβ6 (P06756 31-992 limits assumed): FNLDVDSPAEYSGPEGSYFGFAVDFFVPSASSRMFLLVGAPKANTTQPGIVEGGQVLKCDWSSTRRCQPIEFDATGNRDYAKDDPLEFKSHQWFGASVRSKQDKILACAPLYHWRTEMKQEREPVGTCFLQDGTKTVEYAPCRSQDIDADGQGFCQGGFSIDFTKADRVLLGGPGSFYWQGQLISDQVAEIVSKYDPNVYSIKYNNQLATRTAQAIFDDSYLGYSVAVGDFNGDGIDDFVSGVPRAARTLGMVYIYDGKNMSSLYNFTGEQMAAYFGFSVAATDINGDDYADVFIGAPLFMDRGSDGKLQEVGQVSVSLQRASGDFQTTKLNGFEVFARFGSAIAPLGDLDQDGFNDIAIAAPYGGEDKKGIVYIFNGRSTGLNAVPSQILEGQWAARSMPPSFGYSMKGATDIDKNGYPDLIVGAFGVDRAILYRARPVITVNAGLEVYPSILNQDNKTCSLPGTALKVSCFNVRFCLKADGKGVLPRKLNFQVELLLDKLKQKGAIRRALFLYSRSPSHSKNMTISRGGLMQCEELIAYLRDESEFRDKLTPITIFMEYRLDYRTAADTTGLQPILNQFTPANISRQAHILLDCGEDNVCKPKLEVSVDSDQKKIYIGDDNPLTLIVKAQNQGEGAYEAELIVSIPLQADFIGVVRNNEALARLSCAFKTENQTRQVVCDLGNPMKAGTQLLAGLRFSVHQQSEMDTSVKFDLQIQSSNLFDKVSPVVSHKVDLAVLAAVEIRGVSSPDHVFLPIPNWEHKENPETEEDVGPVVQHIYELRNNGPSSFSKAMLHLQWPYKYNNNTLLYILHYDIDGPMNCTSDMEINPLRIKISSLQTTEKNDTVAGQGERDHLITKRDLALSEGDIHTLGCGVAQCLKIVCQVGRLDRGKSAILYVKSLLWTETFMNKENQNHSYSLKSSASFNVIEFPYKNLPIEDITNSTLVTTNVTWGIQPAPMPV
Sequence of αvβ6 (P18564 22-707 limits assumed): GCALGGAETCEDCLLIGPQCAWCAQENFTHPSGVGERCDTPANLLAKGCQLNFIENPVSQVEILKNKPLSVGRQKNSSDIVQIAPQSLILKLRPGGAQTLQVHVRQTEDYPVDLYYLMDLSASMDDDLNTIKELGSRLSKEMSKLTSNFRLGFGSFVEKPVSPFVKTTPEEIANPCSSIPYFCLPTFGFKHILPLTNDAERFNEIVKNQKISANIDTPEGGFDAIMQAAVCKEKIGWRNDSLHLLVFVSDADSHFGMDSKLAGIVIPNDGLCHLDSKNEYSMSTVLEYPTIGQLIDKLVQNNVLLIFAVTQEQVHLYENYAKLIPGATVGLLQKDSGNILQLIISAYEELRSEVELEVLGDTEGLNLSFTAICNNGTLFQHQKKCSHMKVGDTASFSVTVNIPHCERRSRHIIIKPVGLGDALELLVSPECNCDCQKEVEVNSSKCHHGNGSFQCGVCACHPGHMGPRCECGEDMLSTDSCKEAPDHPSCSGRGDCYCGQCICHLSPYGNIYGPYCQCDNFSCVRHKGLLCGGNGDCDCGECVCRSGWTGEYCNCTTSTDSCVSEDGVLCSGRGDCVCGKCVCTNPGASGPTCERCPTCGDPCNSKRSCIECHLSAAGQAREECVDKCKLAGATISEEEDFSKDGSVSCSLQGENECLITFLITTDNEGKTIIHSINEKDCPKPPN
In short: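 Inhibition of αvβ6 binding to immobilized recombinant TGFb1-LAP (1 μg/mL coating), 1 h at room temperature with 1 mM MnCl2 in BSA/TBST buffer, integrin diluted to 0.2 μg/mL before addition. Streptavidin-HRP/TMB read-out; four-parameter logistic fitting gave IC50.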

Sequence of αvβ1 (P06756 31-992 limits assumed): as the sequence (P06756 31-992 limits assumed) above
Sequence of αvβ1 (P05556 21-728 limits assumed): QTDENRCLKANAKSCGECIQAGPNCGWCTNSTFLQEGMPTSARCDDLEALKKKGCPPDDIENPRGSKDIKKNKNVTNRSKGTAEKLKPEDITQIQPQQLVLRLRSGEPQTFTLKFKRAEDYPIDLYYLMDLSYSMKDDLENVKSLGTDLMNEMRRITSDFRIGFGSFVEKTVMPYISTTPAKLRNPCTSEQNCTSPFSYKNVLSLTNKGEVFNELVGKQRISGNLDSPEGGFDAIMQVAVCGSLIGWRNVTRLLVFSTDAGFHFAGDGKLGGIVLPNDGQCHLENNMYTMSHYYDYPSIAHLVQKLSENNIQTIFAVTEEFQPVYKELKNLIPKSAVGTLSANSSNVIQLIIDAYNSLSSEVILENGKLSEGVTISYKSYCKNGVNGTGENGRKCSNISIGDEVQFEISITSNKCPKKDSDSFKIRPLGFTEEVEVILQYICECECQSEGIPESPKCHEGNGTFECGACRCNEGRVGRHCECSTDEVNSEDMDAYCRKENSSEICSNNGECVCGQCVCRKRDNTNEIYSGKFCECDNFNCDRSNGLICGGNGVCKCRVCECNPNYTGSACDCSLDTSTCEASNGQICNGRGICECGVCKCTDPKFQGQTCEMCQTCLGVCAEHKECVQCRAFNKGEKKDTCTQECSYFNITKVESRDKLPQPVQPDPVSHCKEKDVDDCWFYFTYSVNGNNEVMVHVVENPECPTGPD

| IC50 [1] | IC50 [2] | Structure (SMILES) |
| --- | --- | --- |
| > 1000 nM | 100 to 1000 nM | O=C(O)C[C@@H](CO[C@@H]1CCCN(CCCc2ccc3c(n2)NCCC3)C1)c1cccc(-c2ccccc2)c1 [Compound 457] |
| < 100 nM | < 100 nM | O=C(O)C[C@H](CO[C@@H]1CCCN(CCCc2ccc3c(n2)NCCC3)C1)c1ccc(-c2ccccc2)cc1 [Compound 458] |
| > 1000 nM | 100 to 1000 nM | O=C(O)C[C@@H](CO[C@@H]1CCCN(CCCc2ccc3c(n2)NCCC3)C1)c1ccc(-c2ccccc2)cc1 [Compound 459] |
| > 1000 nM | > 1000 nM | O=C(O)C[C@H](CO[C@@H]1CCCN(CCCc2ccc3c(n2)NCCC3)C1)c1ccccc1-c1ccccc1 [Compound 460] |
| > 1000 nM | > 1000 nM | O=C(O)C[C@@H](CO[C@@H]1CCCN(CCCc2ccc3c(n2)NCCC3)C1)c1ccccc1-c1ccccc1 [Compound 461] |
| < 100 nM | < 100 nM | O=C(O)C[C@H](CO[C@@H]1CCCN(CCCc2ccc3c(n2)NCCC3)C1)c1cccc(N2C[C@@H]3CC[C@H]2CO3)c1 [Compound 462] |
| 100 to 1000 nM | 100 to 1000 nM | O=C(O)C[C@H](CO[C@@H]1CCCN(CCCc2ccc3c(n2)NCCC3)C1)c1cccc(N2C[C@H]3CC[C@@H]2CO3)c1 [Compound 463] |
| 100 to 1000 nM | 100 to 1000 nM | O=C(O)C[C@@H](CO[C@@H]1CCCN(CCCc2ccc3c(n2)NCCC3)C1)c1cccc(N2C[C@@H]3CC[C@H]2CO3)c1 [Compound 464] |
| < 100 nM | < 100 nM | O=C(O)C[C@@H](CO[C@@H]1CCCN(CCCc2ccc3c(n2)NCCC3)C1)c1cccc(N2C[C@H]3CC[C@@H]2CO3)c1 [Compound 465] |
| < 100 nM | 100 to 1000 nM | O=C(N[C@@H](CCO[C@@H]1CCCN(CCCc2ccc3c(n2)NCCC3)C1)C(=O)O)c1c(F)cc(N2CCOC[C@@H]2C(F)(F)F)cc1F [Compound 466] |
| < 100 nM | < 100 nM | O=C(N[C@@H](CCO[C@@H]1CCCN(CCCc2ccc3c(n2)NCCC3)C1)C(=O)O)c1c(F)cc(N2CCOCC2)cc1F [Compound 467] |
| < 100 nM | < 100 nM | O=C(N[C@@H](CCO[C@@H]1CCCN(CCCc2ccc3c(n2)NCCC3)C1)C(=O)O)c1c(F)cccc1F [Compound 468] |
| < 100 nM | < 100 nM | O=C(N[C@@H](CCO[C@@H]1CCCN(CCCc2ccc3c(n2)NCCC3)C1)C(=O)O)c1ccccc1 [Compound 469] |
| 100 to 1000 nM | 100 to 1000 nM | O=C(O)[C@H](CCO[C@@H]1CCCN(CCCc2ccc3c(n2)NCCC3)C1)Nc1ncnc2ccsc12 [Compound 470] |
| 100 to 1000 nM | 100 to 1000 nM | Cc1csc2c(N[C@@H](CCO[C@@H]3CCCN(CCCc4ccc5c(n4)NCCC5)C3)C(=O)O)ncnc12 [Compound 471] |
| > 1000 nM | < 100 nM | O=C(O)[C@H](CCO[C@@H]1CCCN(CCCc2ccc3c(n2)NCCC3)C1)Nc1ncnc2sccc12 [Compound 472] |
| > 1000 nM | > 1000 nM | Cc1csc2ncnc(N[C@@H](CCO[C@@H]3CCCN(CCCc4ccc5c(n4)NCCC5)C3)C(=O)O)c12 [Compound 473] |
| 100 to 1000 nM | < 100 nM | O=C(O)[C@H](CCO[C@@H]1CCCN(CCCc2ccc3c(n2)NCCC3)C1)Nc1ncnc2cc(F)c(F)cc12 [Compound 474] |
| > 1000 nM | > 1000 nM | O=C(O)[C@H](CCO[C@@H]1CCCN(CCCc2ccc3c(n2)NCCC3)C1)Nc1ncnc2cc(C(F)(F)F)ccc12 [Compound 475] |
| < 100 nM | < 100 nM | O=C(O)[C@H](CCO[C@@H]1CCCN(CCCc2ccc3c(n2)NCCC3)C1)NC(=O)[C@@H]1CCCN1S(=O)(=O)c1ccccc1 [Compound 476] |
| > 1000 nM | > 1000 nM | O=C(O)[C@@](O)(CO[C@@H]1CCCN(Cc2ccc3c(n2)NCCC3)C1)c1ccccc1 [Compound 477] |

| IC50 [1] | IC50 [2] | Structure (SMILES) |
| --- | --- | --- |
| > 1000 nM | > 1000 nM | O=C(O)[C@](O)(CO[C@@H]1CCCN(Cc2ccc3c(n2)NCCC3)C1)c1ccccc1 [Compound 478] |
| 100 to 1000 nM | 100 to 1000 nM | O=C(N[C@H](CCO[C@@H]1CCCN(CCCc2ccc3c(n2)NCCC3)C1)C(=O)O)c1ccccc1 [Compound 479] |
| 100 to 1000 nM | 100 to 1000 nM | O=C(N[C@H](CCO[C@@H]1CCCN(CCCc2ccc3c(n2)NCCC3)C1)C(=O)O)c1c(F)cccc1F [Compound 480] |
| < 100 nM | < 100 nM | O=C(O)C[C@H](CO[C@@H]1CCCN(CCCc2ccc3c(n2)NCCC3)C1)c1cc(C2CC2)ccc1F [Compound 481] |
| < 100 nM | < 100 nM | O=C(O)C[C@H](CO[C@@H]1CCCN(CCCc2ccc3c(n2)NCCC3)C1)c1cccc(N2CCCC2=O)c1 [Compound 482] |
| < 100 nM | < 100 nM | O=C(O)C[C@H](CO[C@@H]1CCCN(CCCc2ccc3c(n2)NCCC3)C1)c1cc(F)cc(C2CC2)c1 [Compound 483] |
| > 1000 nM | > 1000 nM | O=C(O)[C@@H](CCO[C@@H]1CCCN(CCCc2ccc3c(n2)NCCC3)C1)c1ccc(C2CC2)cc1 [Compound 484] |
| > 1000 nM | > 1000 nM | O=C(O)[C@@H](CCO[C@@H]1CCCN(CCCc2ccc3c(n2)NCCC3)C1)c1ccc(F)c(-c2ccccc2)c1 [Compound 485] |
| 100 to 1000 nM | < 100 nM | O=C(O)[C@@H](CCO[C@@H]1CCCN(CCCc2ccc3c(n2)NCCC3)C1)c1cccc2c1cnn2CC1CC1 [Compound 486] |
| < 100 nM | < 100 nM | O=C(O)[C@@H](CCO[C@@H]1CCCN(CCCc2ccc3c(n2)NCCC3)C1)c1cccc2nn(CC3CC3)cc12 [Compound 487] |
| < 100 nM | < 100 nM | O=C(N[C@@H](CCO[C@@H]1CCCN(CCCc2ccc3c(n2)NCCC3)C1)C(=O)O)c1cc(Cl)cc(Cl)c1 [Compound 488] |
| < 100 nM | < 100 nM | O=C(O)C[C@H](CO[C@@H]1CCCN(CCCc2ccc3c(n2)NCCC3)C1)c1cncc(C2CC2)c1 [Compound 489] |
| < 100 nM | < 100 nM | O=C(O)C[C@H](CO[C@@H]1CCCN(CCCc2ccc3c(n2)NCCC3)C1)c1ccnc(C2CC2)c1 [Compound 490] |
| < 100 nM | < 100 nM | O=C(O)C[C@H](CO[C@@H]1CCCN(CCCc2ccc3c(n2)NCCC3)C1)c1cccc([C@@H]2CCOC2)c1 [Compound 491] |
| < 100 nM | < 100 nM | O=C(O)C[C@H](CO[C@@H]1CCCN(CCCc2ccc3c(n2)NCCC3)C1)c1cccc(-n2cccn2)c1 [Compound 492] |
| 100 to 1000 nM | 100 to 1000 nM | O=C(O)C[C@H](CO[C@@H]1CCCN(CCCc2ccc3c(n2)NCCC3)C1)c1cccc([C@H]2CCOC2)c1 [Compound 493] |
| > 1000 nM | > 1000 nM | O=C(N[C@H](CCO[C@@H]1CCCN(CCCc2ccc3c(n2)NCCC3)C1)C(=O)O)c1c(F)cc(N2CCOC[C@@H]2C(F)(F)F)cc1F [Compound 494] |
| < 100 nM | > 1000 nM | O=C(O)[C@@H](CCO[C@@H]1CCCN(CCCc2ccc3c(n2)NCCC3)C1)NC(=O)[C@@H]1CCCN1S(=O)(=O)c1ccccc1 [Compound 495] |
| > 1000 nM | 100 to 1000 nM | O=C(N[C@H](CCO[C@@H]1CCCN(CCCc2ccc3c(n2)NCCC3)C1)C(=O)O)c1cc(Cl)cc(Cl)c1 [Compound 496] |
| 100 to 1000 nM | < 100 nM | O=C(O)[C@@H](CCO[C@@H]1CCCN(CCCc2ccc3c(n2)NCCC3)C1)Nc1ncnc2cc(C(F)(F)F)ccc12 [Compound 497] |
